Data taken from patent US20020160981A1, “Compositions containing an association of aspirin and an anti-Xz oligosaccharide and use of an anti-Xa oligosaccharide optionally in combination with aspirin” (Sanofi-Synthelabo, priority 1997, published 2002).

Legend:
prothrombin fragment 1+2 = prothrombin fragment 1+2 levels in PTCA patients; assay type: in vivo, human; settings: 2 hours after PS injection; fell from 2.08±1.04 before
[1] = test system: Thrombin-antithrombin complexes; test: thrombin-antithrombin complexes levels (TAT) in PTCA patients; assay type: in vivo, human; settings: 2 hours after PS injection; fell from 21.9±18.7 before
[2] = test system: patients undergoing a transluminal angioplasty of the coronaries; test: pilot clinical study in patients undergoing PTCA: thrombus formation at PTCA sites and TIMI flow in target vessel; assay type: in vivo, human; settings: 71 patients
Description: A single dose of 12 mg of PS via the intravenous route and 500 mg of aspirin, via the intravenous route, was administered to the patients.
To assess the antithrombotic activity 71 patients with stable angina (26), recent unstable angina (11) or recent myocardial infarction (34) with type A or B coronary lesions underwent PTCA with a single 12 mg PS i.v. bolus injection and 500 mg i.v. aspirin. Angiography was repeated 24 h after PTCA. The endpoints were thrombus formation at PTCA sites and the thrombolysis in myocardial infarction (TIMI) flow in target vessel. Heparin was not allowed before, during and within 24 h after PTCA.

[3] = activated clotting time (ACT) in PTCA patients; assay type: in vivo, human; settings: after 12 mg PS i.v. and 500 mg i.v. aspirin
[4] = single 12 mg PS i.v. bolus and 500 mg i.v. aspirin, no heparin

## CO[C@H]1OC(COS(=O)(=O)O)[C@@H](O[C@@H]2OC(C(=O)O)[C@H](O[C@@H]3OC(COS(=O)(=O)O)[C@@H](O[C@@H]4OC(C(=O)O)[C@@H](O[C@H]5OC(COS(=O)(=O)O)[C@@H](O)C(O)C5NS(=O)(=O)O)C(O)C4O)C(OS(=O)(=O)O)C3NS(=O)(=O)O)C(O)C2OS(=O)(=O)O)C(O)C1NS(=O)(=O)O (stereo partly drawn) [PS, methyl O-(2-deoxy-2-sulphoamino-6-O-sulpho-α-D-gluco-pyranosyl)-(1→4)-O-(β-D-glucopyranosyluronic acid)-(1→4)-O-(2-deoxy-2-sulphoamino-3,6-di-O-sulpho-α-D-glucopyranosyl)-(1→4)-O-(2-O-sulpho-α-L-idopyranosyl-uronic acid)-(1→4)-2-deoxy-2-sulphoamino-6-O-sulpho-α-D-glucopyranoside]
Prothrombin fragment 1+2
  prothrombin fragment 1+2: 1.54 ± 82 ng/mL
[1]
  Thrombin-antithrombin complexes levels (TAT): 4.8 ± 3.8 µg/L
[2]; 12 mg PS i.v. and 500 mg i.v. aspirin
  major bleeding: No major bleeding occurred
[2]; [4]
  Acute thrombotic closure at dissected PTCA site: 1 patient
  distal embolization of a thrombus containing plaque: 1 patient
[2]; at 24 h after PTCA, 12 mg PS i.v. and 500 mg i.v. aspirin
  TIMI 3 flow without thrombus at PTCA site: 71 patients
Factor Xa; 10 min. after 12 mg PS i.v. bolus (with 500 mg i.v. aspirin)
  Anti-Xa activity, peak: 1.20±0.29 U anti-Xa/ml
Factor Xa; 2 hours after PS administration, 12 mg i.v. (with 500 mg i.v. aspirin)
  Anti-Xa activity, maintained on average: 0.87 ±0.14 U anti-Xa/ml
[3]
  activated clothing time ACT: remained unchanged
